Measurements: patent publication US20250026769A1, “PAPD5 INHIBITORS AND METHODS OF USE THEREOF” (The Children's Medical Center Corporation, priority 2021, published 2025)
Read-outs that look alike come from different tables or passages of the source.

How the values were obtained:
[1] = tested on: hepatitis B surface antigen (HBSAg) from HepG2.2.15 cells, a hepatitis B virus-expressing cell line; assay: HBsAg ELISA in supernatant of HepG2.2.15 cells; assay type: cell-based; settings: HepG2.2.15, 96 h
Experimental: HepG2.2.15 cells, a hepatitis B virus-expressing cell line (Sells, M. A. et al., PNAS, 1987), were plated at 50,000 cells/well in DMEM/F12 media (Gibco) with 10% fetal bovine serum (Omega Scientific) in a 24-well or 96-well plate (Corning), in 2-3 replicates for each test compound/concentration plus controls, and incubated in a humidified 5% CO2 chamber at 37° C. The next day, media was aspirated, cells were washed once with phosphate buffered saline, pH7.4 (Gibco), and 1 mL DMEM/12 media was replaced. Test compounds were added in 3-fold dilutions from up to 100 μM down to 333 pM, with vehicle (dimethylsulfoxide (Sigma)) as a control. After four days of culture in a humidified 5% CO2 chamber at 37° C., plates were spun down in a centrifuge at 300 g for 10 minutes at room temperature. Supernatant from each well was collected and either frozen at −20° C. or used directly for quantitation of hepatitis B surface antigen (HBSAg) in an enzyme-linked immunosorbent assay (ELISA). The supernatant was tested using the HBSAg ELISA kit (Abnova Cat. No KA0286) per the manufacturer's instructions. Results of replicates were averaged and nonlinear curve fitting was used to determine the half maximal inhibitory concentration (IC50) for each test compound.

[2] = molecular target: T1, rPAPD5 (Homo sapiens, UniProt Q8NDF8); assay: differential scanning fluorimetry (DSF) binding and stabilization of rPAPD5; settings: for ΔTm at 100 µM: 100 μM test compound, read-out: ΔTm at 100 μM; for ΔTm at 1 µM: read-out: ΔTm at 1 μM
T1 construct: made in house
Procedure, shortened: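 Differential scanning fluorimetry was used to measure how test compounds bind and thermally stabilize rPAPD5. The reaction contained SYPRO orange dye diluted 1:5000 in […] of buffer with […], 25 mM Tris-HCl, 5 mM MgCl2 and 50 mM KCl. ΔTm was calculated relative to a DMSO control.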

[3] = tested on: TERC 3′ end processing in DC patient iPSCs; assay: TERC 3′ end processing by RACE in DC patient / PARN-mutant iPSCs; assay type: cell-based, human; settings: Homo sapiens, iPSC, read-out: iPSC-based RACE activity
Experimental: Compound 266A had activity ˜2-logs higher in the in vitro RNA oligoadenylation assay compared to the parental compound cmpd. 1, approximating the activity of RG7834 (FIG. 7). […] 1. Compounds 295A and 296A had activity 2-3 logs higher in DC patient iPSCs, showing TERC maturation at 1 nM, similar to RG7834 (FIG. 6). […] Referring to Table 1D, “+” refers to activity at 1 μM, “++” refers to activity above 1 nM and below 1 μM, and “+++” refers to activity at <1 nM, “ND” refers to not determined.

[4] = 10 μM test compound (Table 2a), read-out: ΔTm at 10 μM
[5] = 10 μM test compound, shift vs DMSO control, read-out: ΔTm (Table 2, starred: the compound was tested at 10 μM)
[6] = patient iPSCs, concentration class at which activity is seen

T1 sequence (Q8NDF8 68-698 isoform Q8NDF8-5 limits assumed): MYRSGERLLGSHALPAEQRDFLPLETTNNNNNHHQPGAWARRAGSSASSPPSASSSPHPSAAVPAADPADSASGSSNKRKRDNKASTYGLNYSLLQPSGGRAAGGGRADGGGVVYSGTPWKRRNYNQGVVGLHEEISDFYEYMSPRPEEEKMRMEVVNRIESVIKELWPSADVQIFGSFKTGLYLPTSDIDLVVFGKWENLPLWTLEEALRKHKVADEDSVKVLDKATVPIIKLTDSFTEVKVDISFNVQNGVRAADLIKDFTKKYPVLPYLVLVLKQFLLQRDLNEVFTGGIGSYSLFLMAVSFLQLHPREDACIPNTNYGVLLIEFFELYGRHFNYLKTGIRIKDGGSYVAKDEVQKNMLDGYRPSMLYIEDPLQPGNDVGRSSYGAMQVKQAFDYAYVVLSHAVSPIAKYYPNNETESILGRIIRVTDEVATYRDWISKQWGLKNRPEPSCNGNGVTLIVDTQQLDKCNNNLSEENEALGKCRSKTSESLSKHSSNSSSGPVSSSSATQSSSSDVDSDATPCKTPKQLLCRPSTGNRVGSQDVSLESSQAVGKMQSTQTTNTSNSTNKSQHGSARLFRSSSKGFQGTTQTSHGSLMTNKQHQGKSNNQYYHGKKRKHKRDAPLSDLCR

SMILES	IC50 [1] [µM]	ΔTm at 100 µM ([2]; shift vs DMSO control) [°C]	ΔTm at 1 µM ([2]; 1 μM test compound (Table 2a)) [°C]	ΔTm at 10 µM [2, 4] [°C]	minimal effective concentration [3, 6] [µM]	further results
O=C(O)c1ccccc1Nc1c(-c2ncco2)cnc2ccc(Cl)cc12 [Compound 129A, 2-[(6-chloro-3-oxazol-2-yl-4-quinolyl)amino]benzoic acid]	4.6	> 5	–	–	–	–
O=C(O)c1ccccc1Nc1c(-c2ncco2)cnc2ccc(Br)cc12 [Compound 130A]	8.89	> 5	–	–	–	–
O=C(O)c1ccccc1Nc1c(NC2CCC(F)(F)CC2)cnc2ccc(Cl)cc12 [Compound 185A, 2-[[6-chloro-3-[(4,4-difluorocyclohexyl)amino]-4-quinolyl]amino]benzoic acid]	2.19	> 5	–	–	–	–
O=C(O)c1ccccc1Nc1c(C2CCOCC2)cnc2ccc(Cl)cc12 [Compound 204A, 2-[(6-chloro-3-tetrahydropyran-4-yl-4-quinolyl)amino]benzoic acid]	3.39	> 5	–	–	–	–
O=C(O)c1ccccc1Nc1c(C2=CCOCC2)cnc2ccc(Cl)cc12 [Compound 204A-INT, 2-[[6-chloro-3-(3,6-dihydro-2H-pyran-4-yl)-4-quinolyl]amino]benzoic acid]	2.69	> 5	–	–	–	–
O=C(O)c1ccccc1Nc1c(C2=CCC(F)(F)CC2)cnc2ccc(Cl)cc12 [Compound 205A-INT, 2-[[6-chloro-3-(4,4-difluorocyclohexen-1-yl)-4-quinolyl]amino]benzoic acid]	1.3	> 5	–	–	–	–
O=C(O)c1ccccc1Nc1c(S(=O)(=O)Nc2nn[nH]n2)cnc2ccc(Cl)cc12 [Compound 226A, 2-[[6-chloro-3-(2H-tetrazol-5-ylsulfamoyl)-4-quinolyl]amino]benzoic acid]	9.46	> 5	–	–	–	–
O=C(O)c1ccccc1Nc1c(S(=O)(=O)N2CCOCC2)cnc2ccc(F)cc12 [Compound 233A, 2-[(6-fluoro-3-morpholinosulfonyl-4-quinolyl)amino]benzoic acid]	29.1	> 5	–	–	–	–
O=C(O)c1cc(F)ccc1Nc1c(S(=O)(=O)N2CCOCC2)cnc2ccc(Cl)cc12 [Compound 267A, 2-[(6-chloro-3-morpholinosulfonyl-4-quinolyl)amino]-5-fluoro-benzoic acid]	4.84	> 5	–	–	–	–
Cc1ccc(Nc2c(S(=O)(=O)N3CCOCC3)cnc3ccc(Cl)cc23)c(C(=O)O)c1 [Compound 269A, 2-[(6-chloro-3-morpholinosulfonyl-4-quinolyl)amino]-5-methyl-benzoic acid]	1.68	> 5	–	–	–	–
COc1ccc(Nc2c(S(=O)(=O)N3CCOCC3)cnc3ccc(Cl)cc23)c(C(=O)O)c1 [Compound 270A, 2-[(6-chloro-3-morpholinosulfonyl-4-quinolyl)amino]-5-methoxy-benzoic acid]	4.98	> 5	–	–	–	–
O=C(O)c1ccccc1Nc1c(C2CCSCC2)cnc2ccc(Cl)cc12 [Compound 298A, 2-[(6-chloro-3-tetrahydrothiopyran-4-yl-4-quinolyl)amino]benzoic acid]	1.75	> 5	–	–	–	–
Cc1ccc(Nc2c(-c3ncco3)cnc3ccc(Cl)cc23)c(C(=O)O)c1 [Compound 301A, 2-[(6-chloro-3-oxazol-2-yl-4-quinolyl)amino]-5-methyl-benzoic acid]	0.942	> 5	–	–	–	–
O=C(O)c1cc(F)ccc1Nc1c(C2CCOCC2)cnc2ccc(Cl)cc12 [Compound 303A, 2-[(6-chloro-3-tetrahydropyran-4-yl-4-quinolyl)amino]-5-fluoro-benzoic acid]	0.229	> 5	–	–	–	–
O=C(O)c1cc(Cl)ccc1Nc1c(N2CCC(OC(F)(F)F)CC2)cnc2ccc(Cl)cc12 [Compound 394A, 5-chloro-2-[[6-chloro-3-[4-(trifluoromethoxy)-1-piperidyl]-4-quinolyl]amino]benzoic acid]	–	–	> 5	> 5	< 0.001	ΔTm at 10 µM [2, 5]: > 5 °C
O=C(O)c1cc(Cl)ccc1Nc1c(C2CCC(F)CC2)cnc2ccc(Cl)cc12 (centres unmarked) [Compound 400A, 5-chloro-2-[[6-chloro-3-(4-fluorocyclohexyl)-4-quinolyl]amino]benzoic acid]	–	–	–	–	–	ΔTm at 10 µM ([2]; read-out: ΔTm (Table 2, starred: the compound was tested at 10 μM)): > 5 °C; ΔTm at 1 µM [2]: > 5 °C; ΔTm at 10 µM ([2]; read-out: ΔTm at 10 μM): > 5 °C; minimal effective concentration [3]: < 0.001 µM
O=C(O)c1cc(Cl)ccc1Nc1c(C2=CCOC2)cnc2ccc(Cl)cc12 [Compound 401A, 5-chloro-2-[[6-chloro-3-(2,5-dihydrofuran-3-yl)-4-quinolyl]amino]benzoic acid]	–	> 5	> 5	> 5	1	–
O=C(O)c1cc(Cl)ccc1Nc1c(C2=CCNC2)cnc2ccc(Cl)cc12 [Compound 402A, 5-chloro-2-((6-chloro-3-(2,5-dihydro-1H-pyrrol-3-yl)quinolin-4-yl)amino)benzoic acid]	–	> 5	> 5	> 5	1	–
O=C1CC=C(c2cnc3ccc(Cl)cc3c2Nc2ccc(Cl)cc2C(=O)O)CC1 [Compound 403A, 5-chloro-2-[[6-chloro-3-(4-oxocyclohexen-1-yl)-4-quinolyl]amino]benzoic acid]	–	> 5	> 5	> 5	1	–
O=C(O)c1cc(Cl)ccc1Nc1c(S(=O)(=O)N2CCSCC2)cnc2cc(F)c(Cl)cc12 [Compound 415A, 5-chloro-2-[(6-chloro-7-fluoro-3-thiomorpholinosulfonyl-4-quinolyl)amino]benzoic acid]	–	> 5	> 5	> 5	1	–
O=C(O)c1cc(Cl)c(F)cc1Nc1c(S(=O)(=O)N2CCSCC2)cnc2ccc(Cl)cc12 [Compound 425A, 5-chloro-2-[(6-chloro-3-thiomorpholinosulfonyl-4-quinolyl)amino]-4-fluoro-benzoic acid]	–	> 5	> 5	> 5	0.001 to 1	–
Cc1cc(Nc2c(S(=O)(=O)N3CCSCC3)cnc3ccc(Cl)cc23)c(C(=O)O)cc1Cl [Compound 426A, 5-chloro-2-[(6-chloro-3-thiomorpholinosulfonyl-4-quinolyl)amino]-4-methyl-benzoic acid]	–	–	1 to 5	> 5	1	ΔTm at 10 µM [2, 5]: > 5 °C
O=C(O)c1cc(Cl)cc(F)c1Nc1c(S(=O)(=O)N2CCSCC2)cnc2ccc(Cl)cc12 [Compound 427A, 5-chloro-2-[(6-chloro-3-thiomorpholinosulfonyl-4-quinolyl)amino]-3-fluoro-benzoic acid]	–	> 5	> 5	> 5	0.001 to 1	–
O=C(O)c1cc(Cl)ccc1Nc1c(N2CCC(Cl)(Cl)CC2)cnc2ccc(Cl)cc12 [Compound 430A, 5-chloro-2-[[6-chloro-3-(4,4-dichloro-1-piperidyl)-4-quinolyl]amino]benzoic acid]	–	–	> 5	> 5	< 0.001	ΔTm at 10 µM [2, 5]: > 5 °C
